Drawing on patent publication US8618289B2 (Ambit Biosciences Corporation, priority 2008, dated 2013), this text covers EC50, Kd and IC50 for 23 compounds.

pEC50, pIC50, pKd: −log10 of the molar value. Like-named read-outs stand apart in the source and are kept apart here. Where only a bound is given, the exact number is not on record here.

In one assay the test system is A375 cells. Nature of the assay: cells. The following applies: Homo sapiens, A-375, read-out: A375 Viability EC50.
Assay [1] deals with T1, RAF kinases (Homo sapiens, UniProt P15056, V600E). The assay can be described thus: biochemical.
T1 sequence (P15056 whole entry V600E): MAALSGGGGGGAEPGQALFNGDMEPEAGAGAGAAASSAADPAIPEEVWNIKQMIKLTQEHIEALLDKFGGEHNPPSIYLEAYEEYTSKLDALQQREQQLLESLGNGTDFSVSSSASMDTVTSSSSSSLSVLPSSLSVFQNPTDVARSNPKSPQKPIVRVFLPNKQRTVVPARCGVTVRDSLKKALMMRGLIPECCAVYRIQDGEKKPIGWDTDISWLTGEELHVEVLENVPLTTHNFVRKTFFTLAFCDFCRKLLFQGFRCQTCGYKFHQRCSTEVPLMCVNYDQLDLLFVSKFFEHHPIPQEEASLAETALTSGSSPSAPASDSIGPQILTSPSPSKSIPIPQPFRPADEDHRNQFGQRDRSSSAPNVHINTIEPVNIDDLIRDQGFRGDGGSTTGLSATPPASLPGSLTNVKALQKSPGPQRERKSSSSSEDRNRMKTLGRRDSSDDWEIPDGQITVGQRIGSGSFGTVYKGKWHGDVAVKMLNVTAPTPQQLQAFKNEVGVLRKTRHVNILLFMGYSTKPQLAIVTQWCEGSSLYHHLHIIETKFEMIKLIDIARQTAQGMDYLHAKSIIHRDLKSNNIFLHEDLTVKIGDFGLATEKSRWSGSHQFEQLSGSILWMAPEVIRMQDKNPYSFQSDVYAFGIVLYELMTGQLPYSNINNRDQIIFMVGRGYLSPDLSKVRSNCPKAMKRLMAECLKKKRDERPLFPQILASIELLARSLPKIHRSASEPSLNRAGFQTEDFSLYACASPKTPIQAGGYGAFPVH
Assay [2] deals with MEK1 phosphorylation in the A375 human melanoma cell line. Nature of the assay: cells. The following applies: A-375, read-out: pMEK IC50.
The target in assay [3] is T1, RAF kinases. The conditions noted are these: read-out: BRAF V600E Kd; BRAF V600E.
Assay [4] has as its target RAF kinases (Homo sapiens, UniProt P15056). The assay can be described thus: biochemical.
In assay [5] the target is RAF kinases (Homo sapiens, UniProt P04049). The assay can be described thus: biochemical.
Chain of RAF kinases (Homo sapiens, UniProt P04049) (P04049 whole entry): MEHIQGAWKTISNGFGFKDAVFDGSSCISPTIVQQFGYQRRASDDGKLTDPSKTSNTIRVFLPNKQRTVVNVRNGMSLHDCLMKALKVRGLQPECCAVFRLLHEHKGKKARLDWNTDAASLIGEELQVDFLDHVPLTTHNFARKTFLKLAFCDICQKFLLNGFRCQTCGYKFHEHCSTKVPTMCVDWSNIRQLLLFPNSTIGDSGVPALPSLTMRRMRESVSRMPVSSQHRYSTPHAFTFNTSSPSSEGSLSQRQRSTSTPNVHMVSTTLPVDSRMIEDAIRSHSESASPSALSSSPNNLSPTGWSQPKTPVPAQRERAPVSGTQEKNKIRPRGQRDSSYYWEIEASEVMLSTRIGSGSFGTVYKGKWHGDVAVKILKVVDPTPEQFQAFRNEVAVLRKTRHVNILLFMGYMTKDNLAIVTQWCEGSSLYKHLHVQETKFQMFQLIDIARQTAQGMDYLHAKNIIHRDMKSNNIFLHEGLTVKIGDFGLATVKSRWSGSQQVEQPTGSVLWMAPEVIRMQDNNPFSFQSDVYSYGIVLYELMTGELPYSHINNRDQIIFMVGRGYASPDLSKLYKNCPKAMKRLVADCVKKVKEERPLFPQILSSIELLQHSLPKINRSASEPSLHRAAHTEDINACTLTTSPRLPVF

Chain of RAF kinases (Homo sapiens, UniProt P15056) (P15056 whole entry): as the sequence (P15056 whole entry V600E) above, with E600V counted along it

What is called pEC50 is the negative decadic logarithm of the EC50, by convention in mol/L. As a reminder, the pKd is the negative decadic logarithm of the Kd, by convention in mol/L. Usually pIC50 stands for the negative decadic logarithm of the IC50, by convention in mol/L. For the compound `COc1cc2ncnc(Sc3cccc(NC(=O)Nc4cc(C(F)(F)F)nn4-c4ccccc4)c3)c2cc1OC` [Ex 192, 1-[3-(6,7-dimethoxyquinazolin-4-ylthio)phenyl]-3-[1-phenyl-3-(trifluoromethyl)-1H-pyrazol-5-yl]urea], the pEC50 in the assay with A375 cells is 6.30 to 6.60. The compound further gave a pKd on RAF kinases [1] of 6.00 to 6.30. Moreover, the pIC50 in assay [2] is more than 6.60.

In the case of `CCOC(C)(C)c1cc(NC(=O)Nc2cccc(Oc3ncnc4cc(OCCOC)c(OC)cc34)c2)n(-c2ccccc2)n1` [Ex 212, 1-[3-(2-ethoxypropan-2-yl)-1-phenyl-1H-pyrazol-5-yl]-3-{3-[6-methoxy-7-(2-methoxyethoxy)quinazolin-4-yloxy]phenyl}urea], in the assay on A375 cells, the negative logarithm of the EC50 (pEC50) is less than 6.00. The compound further showed a pKd at RAF kinases [1] of 6.30 to 6.60. Besides, in assay [2], the pIC50 is 6.00 to 6.30.

Consider `CCOC(=O)Cn1nc(C(C)(C)C)cc1NC(=O)Nc1cccc(Sc2ncnc3cc(OC)c(OC)cc23)c1` [Ex 195, ethyl 2-(3-tert-butyl-5-{3-[3-(6,7-dimethoxyquinazolin-4-ylthio)phenyl]ureido}-1H-pyrazol-1-yl)acetate], for which the negative-log EC50 (pEC50) in the assay on A375 cells was less than 6.00. At RAF kinases [1], this compound gave a negative logarithm of the Kd (pKd) of 6.30 to 6.60. For the same compound, in assay [2], the pIC50 is 6.30 to 6.60.

On to `COc1cc2ncnc(Oc3cccc(NC(=O)Nc4cc(C(C)(C)C)on4)c3)c2cc1O[C@H]1CCN(C(=O)OC(C)(C)C)C1` [Ex 108, (S)-tert-butyl 3-(4-(3-(3-(5-tert-butylisoxazole-3-yl)ureido)phenoxy)-7-methoxyquinazolin-6-yloxy)pyrrolidine-1-carboxylate], for which the pEC50 with A375 cells is 6.00 to 6.30. On RAF kinases [1], this compound showed a pKd of 6.00 to 6.30. Also, in assay [2], the pIC50 is more than 6.60.

As for `COCCOc1cc2ncnc(Sc3cccc(NC(=O)Nc4cc(C(C)(C)C)no4)c3)c2cc1OCCOC` [Ex 247, 1-(3-(6,7-bis(2-methoxyethoxy)quinazolin-4-ylthio)phenyl)-3-(3-tert-butylisoxazol-5-yl)urea], the pKd at RAF kinases [3] is more than 6.60; on RAF kinases [4], 6.30 to 6.60; on RAF kinases [5], 6.30 to 6.60. Also, in the assay with A375 cells, the pEC50 was less than 6.00. In assay [2], the negative logarithm of the IC50 (pIC50) is more than 6.60.

Turning to `CCOC(C)(C)c1cc(NC(=O)Nc2cccc(Oc3ncnc4cc(OC)c(OC)cc34)c2)n(-c2ccccc2)n1` [Ex 168, 1-[3-(6,7-dimethoxyquinazolin-4-yloxy)phenyl]-3-[3-(2-ethoxypropan-2-yl)-1-phenyl-1H-pyrazol-5-yl]urea], the pEC50 in the assay with A375 cells is less than 6.00. Further, the negative-log Kd (pKd) at RAF kinases [1] is 6.00 to 6.30. In addition, the negative-log IC50 (pIC50) in assay [2] is more than 6.60.

Take `COc1cc2c(Oc3cccc(NC(=O)Nc4cc(C(F)(F)F)nn4-c4ccccc4)c3)ncnc2cc1OCCN1CCOCC1` [Ex 396, 1-(3-(6-Methoxy-7-(2-morpholinoethoxy)quinazolin-4-yloxy)phenyl)-3-(1-phenyl-3-(trifluoromethyl)-1H-pyrazol-5-yl)urea]: the pKd on RAF kinases [3] was more than 6.60; on RAF kinases [4], 6.00 to 6.30; at RAF kinases [5] it was 6.00 to 6.30. Besides, the negative-log EC50 (pEC50) in the assay with A375 cells was 6.00 to 6.30. Further, the negative-log IC50 (pIC50) in assay [2] was 6.00 to 6.30.

`COCCOc1cc2ncnc(Sc3cccc(NC(=O)Nc4cc(C(C)(CF)CF)on4)c3)c2cc1OC` [Ex 230, 1-[5-(1,3-difluoro-2-methylpropan-2-yl)isoxazol-3-yl]-3-{3-[6-methoxy-7-(2-methoxyethoxy)quinazolin-4-ylthio]phenyl}urea]: the negative-log Kd (pKd) is more than 6.60 at RAF kinases [3], 6.00 to 6.30 at RAF kinases [4] and 6.30 to 6.60 on RAF kinases [5]. The negative logarithm of the EC50 (pEC50) with A375 cells is 6.30 to 6.60. Moreover, the pIC50 in assay [2] was more than 6.60.

With `COc1cc2ncnc(Sc3cccc(NC(=O)Nc4ccc(Cl)c(C(F)(F)F)c4)c3)c2cc1OC` [Ex 186, 1-(4-chloro-3-(trifluoromethyl)phenyl)-3-(3-(6,7-dimethoxyquinazolin-4-ylthio)phenyl)urea], the negative-log EC50 (pEC50) in the assay on A375 cells was 6.00 to 6.30. Moreover, the negative-log Kd (pKd) at RAF kinases [1] is 6.30 to 6.60. Also, in assay [2], the negative logarithm of the IC50 (pIC50) was 6.30 to 6.60.

`CCOc1cc2ncnc(Sc3cccc(NC(=O)Nc4cc(C(C)(C)C)on4)c3)c2cc1OCC` [Ex 51, 1-(5-tert-butylisoxazol-3-yl)-3-[3-(6,7-diethoxyquinazolin-4-ylthio)phenyl]urea]: the pEC50 in the assay on A375 cells was less than 6.00. Further, the pKd at RAF kinases [1] was 6.00 to 6.30. Further, the negative logarithm of the IC50 (pIC50) in assay [2] is 6.30 to 6.60.

For the compound `CCOC(=O)Cn1nc(C(C)(C)C)cc1NC(=O)Nc1cccc(Oc2ncnc3cc(OC)c(OC)cc23)c1` [Ex 166, ethyl 2-(3-tert-butyl-5-{3-[3-(6,7-dimethoxyquinazolin-4-yloxy)phenyl]ureido}-1H-pyrazol-1-yl)acetate], the negative logarithm of the EC50 (pEC50) with A375 cells was less than 6.00. For the same compound, the pKd on RAF kinases [1] was 6.30 to 6.60. For the same compound, the pIC50 in assay [2] is 6.00 to 6.30.

Take `COc1cc2ncnc(Oc3cccc(NC(=O)Nc4cc(C(F)(F)F)nn4-c4ccc(C)cc4)c3)c2cc1OC` [Ex 172, 1-[3-(6,7-dimethoxyquinazolin-4-yloxy)phenyl]-3-[1-p-tolyl-3-(trifluoromethyl)-1H-pyrazol-5-yl]urea]: in the assay on A375 cells, the negative logarithm of the EC50 (pEC50) was more than 6.60. At RAF kinases [1], this compound had a negative-log Kd (pKd) of 6.00 to 6.30. Further, the negative logarithm of the IC50 (pIC50) in assay [2] was more than 6.60.

For the compound `COc1cc2ncnc(Sc3cccc(NC(=O)Nc4cc(C(F)(F)F)nn4-c4ccc(F)cc4)c3)c2cc1OC` [Ex 198, 1-[3-(6,7-dimethoxyquinazolin-4-ylthio)phenyl]-3-[1-(4-fluorophenyl)-3-(trifluoromethyl)-1H-pyrazol-5-yl]urea], in the assay with A375 cells, the negative logarithm of the EC50 (pEC50) is 6.00 to 6.30. In addition, the pKd on RAF kinases [1] was 6.00 to 6.30. Further, in assay [2], the negative-log IC50 (pIC50) is 6.30 to 6.60.

On to `COCCOc1cc(NC(=O)Nc2cccc(Sc3ncnc4cc(OC)c(OC)cc34)c2)ccc1C(F)(F)F` [Ex 148, 1-(3-(6,7-dimethoxyquinazolin-4-ylthio)phenyl)-3-(3-(2-methoxyethoxy)-4-(trifluoromethyl)phenyl)urea], for which, in the assay with A375 cells, the negative-log EC50 (pEC50) was less than 6.00. Further, at RAF kinases [1], the negative-log Kd (pKd) was 6.00 to 6.30. Besides, the negative logarithm of the IC50 (pIC50) in assay [2] is less than 6.00.

With `COc1cc2ncnc(Sc3cccc(NC(=O)Nc4ccc(OC)c(C(F)(F)F)c4)c3)c2cc1OCCCN1CCS(=O)(=O)CC1` [Ex 246, 1-(4-methoxy-3-(trifluoromethyl)phenyl)-3-(3-(7-methoxy-6-(3-(4,4-dioxothiomorpholino)propoxy)quinazolin-4-ylthio)phenyl)urea], the pKd on RAF kinases [3] was more than 6.60; at RAF kinases [4], 6.30 to 6.60; at RAF kinases [5], 6.30 to 6.60. Moreover, in the assay with A375 cells, the pEC50 is 6.00 to 6.30. The pIC50 in assay [2] was more than 6.60.

For the compound `COc1ccc(-n2nc(C(C)(C)C)cc2NC(=O)Nc2cccc(Oc3ncnc4cc(OC)c(OC)cc34)c2)cc1` [Ex 361, 1-(3-tert-butyl-1-(4-methoxyphenyl)-1H-pyrazol-5-yl)-3-(3-(6,7-dimethoxyquinazolin-4-yloxy)phenyl)urea], the negative logarithm of the Kd (pKd) on RAF kinases [3] is more than 6.60; at RAF kinases [4], 6.30 to 6.60; on RAF kinases [5], 6.00 to 6.30. For the same compound, in the assay on A375 cells, the pEC50 was less than 6.00. The negative-log IC50 (pIC50) in assay [2] was more than 6.60.

For `COc1cc2ncnc(Oc3cccc(NC(=O)Nc4cnn(C(C)(C)C)c4)c3)c2cc1OC` [Ex 252, 1-(1-tert-butyl-1H-pyrazol-4-yl)-3-(3-(6,7-dimethoxyquinazolin-4-yloxy)phenyl)urea], the results for the pKd on RAF kinases [3], at RAF kinases [4] and at RAF kinases [5] were more than 6.60, 6.30 to 6.60 and 6.30 to 6.60, respectively. Also, in the assay on A375 cells, the negative-log EC50 (pEC50) was less than 6.00. For the same compound, the negative logarithm of the IC50 (pIC50) in assay [2] was less than 6.00.

On to `COc1cc2ncnc(Oc3cccc(NC(=O)Nc4cc(C(C)(C)C)nn4-c4cnccc4C)c3)c2cc1OC` [Ex 303, 1-(3-tert-butyl-1-(4-methylpyridin-3-yl)-1H-pyrazol-5-yl)-3-(3-(6,7-dimethoxyquinazolin-4-yloxy)phenyl)urea], for which the pKd on RAF kinases [3] is more than 6.60; at RAF kinases [4], 6.00 to 6.30; on RAF kinases [5] it was 6.30 to 6.60. For the same compound, in the assay with A375 cells, the negative-log EC50 (pEC50) is more than 6.60. Besides, the pIC50 in assay [2] is more than 6.60.

Take `COCCOc1cc2ncnc(Oc3cccc(NC(=O)Nc4cc(C(C)C)no4)c3)c2cc1OC` [Ex 215, 1-(3-isopropylisoxazol-5-yl)-3-(3-(6-methoxy-7-(2-methoxyethoxy)quinazolin-4-yloxy)phenyl)urea]: the pKd is more than 6.60 on RAF kinases [3], 6.30 to 6.60 on RAF kinases [4] and 6.30 to 6.60 on RAF kinases [5]. For the same compound, the pEC50 in the assay with A375 cells is less than 6.00. Further, the negative-log IC50 (pIC50) in assay [2] was 6.00 to 6.30.

On to `COc1cc2ncnc(Oc3cccc(NC(=O)Nc4cc(C(C)(C)C)nn4-c4ccccc4)c3)c2cc1OC` [Ex 153, 1-(3-tert-butyl-1-phenyl-1H-pyrazol-5-yl)-3-(3-(6,7-dimethoxyquinazolin-4-yloxy)phenyl)urea], for which, on RAF kinases [1], the pKd is 6.00 to 6.30. For the same compound, the pIC50 in assay [2] was more than 6.60.

Turning to `COc1cc2ncnc(Oc3cccc(NC(=O)Nc4cc(C(F)(F)F)nn4-c4ccccc4)c3C)c2cc1OC` [Ex 291, 1-(3-(6,7-Dimethoxyquinazolin-4-yloxy)-2-methylphenyl)-3-(1-phenyl-3-(trifluoromethyl)-1H-pyrazol-5-yl)urea], the negative logarithm of the Kd (pKd) was more than 6.60 on RAF kinases [3], 6.00 to 6.30 at RAF kinases [4] and 6.30 to 6.60 at RAF kinases [5]. In the assay with A375 cells, the pEC50 was less than 6.00. In addition, the pIC50 in assay [2] was 6.00 to 6.30.

Regarding `COCCOc1cc2ncnc(Sc3cccc(NC(=O)Nc4cc(C(C)(C)F)no4)c3)c2cc1OC` [Ex 234, 1-(3-(2-fluoropropan-2-yl)isoxazol-5-yl)-3-(3-(6-methoxy-7-(2-methoxyethoxy)quinazolin-4-ylthio)phenyl)urea], the pKd on RAF kinases [3] is more than 6.60; at RAF kinases [4], 6.30 to 6.60; on RAF kinases [5] it was 6.30 to 6.60. In the assay with A375 cells, the pEC50 is less than 6.00. Besides, the pIC50 in assay [2] was more than 6.60.

With `CCOc1cc2ncnc(Oc3cccc(NC(=O)Nc4cc(C(F)(F)F)nn4-c4ccccc4)c3)c2cc1OC` [Example 384, 1-(3-(7-ethoxy-6-methoxyquinazolin-4-yloxy)phenyl)-3-(1-phenyl-3-(trifluoromethyl)-1H-pyrazol-5-yl)urea], the pKd is more than 6.60 on RAF kinases [3], 6.00 to 6.30 on RAF kinases [4] and 6.30 to 6.60 at RAF kinases [5]. The negative logarithm of the EC50 (pEC50) in the assay on A375 cells is 6.30 to 6.60. Besides, in assay [2], the negative-log IC50 (pIC50) is 6.00 to 6.30.
